Among the data in ChEMBL document CHEMBL1781986, “Structure-activity relationships of pyrrole based S-nitrosoglutathione reductase inhibitors: pyrrole regioisomers and propionic acid replacement” (Bioorg Med Chem Lett, 2011) are IC50, clearance and bioavailability values, retold here.

The structures appear in SMILES notation.

The nature of data set [1]: Inhibition of GSNOR expressed in Escherichia coli using GSNO by plate method.
A short description of data set [2]: Inhibition of GSNOR expressed in Escherichia coli using GSNO by cuvette method.
Data set [3] in a line: Clearance in BALB/c mouse plasma at 2 mg/kg, iv or at 10 mg/kg, po administered as single dose. The format is ADME, organism-based.
Data set [4] is described as follows: Oral bioavailability in BALB/c mouse at 10 mg/kg administered as single dose. Type of data set: ADME, organism-based. The note with it: in vivo.
The test system of a further data set is A549. The data set is described as follows: Cytotoxicity against human A549 cells. Type of data set: functional, cell-based.

A word on the IC50: it is the concentration at which inhibition is half-maximal. High values mean weaker potency in that assay, low ones greater potency in that assay. `COc1ccc(-n2ccc(CCC(=O)O)c2-c2ccc(C(N)=O)cc2C)cc1` showed an IC50 in data set [1] of 0.16 µM. With `COc1ccc(-c2ccn(CC(F)(F)C(=O)O)c2-c2ccc(C(N)=O)cc2C)cc1`, the half-inhibitory concentration (IC50) in data set [2] stood at 1.51 µM.

As to `COc1ccc(-c2ccn(-c3ccc(S(N)(=O)=O)cc3)c2-c2ccc(C(N)=O)cc2C)cc1`, the half-inhibitory concentration (IC50) in data set [2] is 28.4 µM. As to `COc1ccc(-c2ccn(-c3ccc(C(=O)O)nc3)c2-c2ccc(C(N)=O)cc2C)cc1`, the IC50 in data set [2] stood at 8.53 µM. For `COc1ccc(-c2ccn(-c3ccc(C(=O)O)cc3)c2-c2ccc(C(N)=O)cc2C)cc1`, in data set [2], half-maximal inhibition (IC50) required 0.85 µM.

The compound `COc1ccc(-c2ccn(CC(C)C(=O)O)c2-c2ccc(C(N)=O)cc2C)cc1` (stereo not drawn) yielded a 50% inhibitory concentration (IC50) in data set [2] of 1.97 µM.

In data set [2], `COc1ccc(-c2ccn(CC3(C(=O)O)CC3)c2-c2ccc(C(N)=O)cc2C)cc1` had an IC50 of 8.09 µM. On the same count and under the same terms, for `COc1ccc(-c2ccn(CC(O)C(=O)O)c2-c2ccc(C(N)=O)cc2C)cc1` (stereo not drawn) the value was 23.5 µM.

`COc1ccc(-c2ccn(C(CC(=O)O)c3ccccc3)c2-c2ccc(C(N)=O)cc2C)cc1` (stereo not drawn) had an IC50 in data set [2] of 8.84 µM. Compound `COc1cc(Cl)ccc1-c1ccc(CCC(=O)O)n1-c1ccc(C(N)=O)cc1C` registered a half-maximal inhibitory concentration (IC50) in data set [1] of 0.054 µM. In data set [2], `COc1ccc(-c2ccn(C(CC(=O)O)C3CC3)c2-c2ccc(C(N)=O)cc2C)cc1` (stereo not drawn) came in with an IC50 of more than 100 µM.

Compound `COc1ccc(-c2ccn(-c3ccc(O)c(F)c3)c2-c2ccc(C(N)=O)cc2C)cc1` had an IC50 in data set [2] of 0.46 µM. The same measure, in the same setting: the value for `COc1ccc(-c2ccn(-c3ccc(C(=O)O)c(F)c3)c2-c2ccc(C(N)=O)cc2C)cc1` was 1.57 µM. A word on the bioavailability: it is dose-corrected exposure relative to a reference, in per cent. As to `COc1ccc(-c2ccc(CCC(=O)O)n2-c2ccc(C(N)=O)cc2C)cc1`, the clearance in data set [3] is 35.4 mL/min/kg. In data set [4], the bioavailability amounted to 16.2%. Moreover, half-maximal inhibition in data set [1] (IC50) required 0.18 µM. Compound `COc1ccc(-c2ccn(-c3ccc(O)nc3)c2-c2ccc(C(N)=O)cc2C)cc1` gave an IC50 in data set [2] of 21.6 µM. Same read-out and setting: the value for `COc1ccc(-c2ccn(CC(N)C(=O)O)c2-c2ccc(C(N)=O)cc2C)cc1` (stereo not drawn) was more than 100 µM. In turn, `CCCC(CC(=O)O)n1ccc(-c2ccc(OC)cc2)c1-c1ccc(C(N)=O)cc1C` (stereo not drawn) registered an IC50 in data set [2] of 63.7 µM. In the case of `COc1ccc(-c2ccn(-c3ccc(O)c(C(=O)O)c3)c2-c2ccc(C(N)=O)cc2C)cc1`, the IC50 in data set [2] amounted to 0.41 µM. On the same count and under the same terms, for `COc1ccc(-c2ccn(C3CCC(C(=O)O)CC3)c2-c2ccc(C(N)=O)cc2C)cc1` (stereo not drawn) the value was more than 100 µM. `COc1ccc(-c2ccn(-c3ccc(C(=O)O)cn3)c2-c2ccc(C(N)=O)cc2C)cc1`: the IC50 in data set [2] is 29.6 µM.

`COc1ccc(-c2ccn(-c3cc(F)c(O)c(F)c3)c2-c2ccc(C(N)=O)cc2C)cc1` showed an IC50 in data set [2] of 0.45 µM. Still for that read-out and setting: for `COc1ccc(-c2ccn(C(C)CC(=O)O)c2-c2ccc(C(N)=O)cc2C)cc1` (stereo not drawn) the value was 14.1 µM. For `COc1cc(Cl)ccc1-n1ccc(CCC(=O)O)c1-c1ccc(C(N)=O)cc1C`, in data set [1], the midpoint of inhibition, the IC50, lay at 0.049 µM. Take `COc1ccc(-c2ccn(-c3ccc(C(=O)O)c(Cl)c3)c2-c2ccc(C(N)=O)cc2C)cc1`: in data set [2], the half-maximal inhibitory concentration (IC50) came to 3.47 µM. For the compound `COc1ccc(-c2ccn(CCC(=O)O)c2-c2ccc(C(N)=O)cc2C)cc1`, the results for the IC50 (in the data set on A549; in data set [2]; in data set [1]) were more than 250 µM, 0.52 µM and 0.66 µM, respectively. In data set [3], the clearance worked out at 52.3 mL/min/kg. The bioavailability in data set [4] came out at 12.2%. In turn, `COc1ccc(-c2ccn(-c3ccc(O)cn3)c2-c2ccc(C(N)=O)cc2C)cc1` displayed a concentration for half-maximal inhibition (IC50) in data set [2] of 3.02 µM. On the same count and under the same terms, the value for `COc1ccc(-c2ccn(C(CC(=O)O)C(C)C)c2-c2ccc(C(N)=O)cc2C)cc1` (stereo not drawn) was 97.2 µM.
